These results are taken from article PMC7231190, “The Medium-Chain Fatty Acid Receptor GPR84 Mediates Myeloid Cell Infiltration Promoting Steatohepatitis and Fibrosis” (Journal of Clinical Medicine, 2020).

The structures appear in SMILES notation. Where a name gives a salt, the structure may show the parent alone.

For one test, the target named is T1, mGPR84 (Mus musculus, UniProt Q8CIM5).
T1 construct: expressed in transfected cells; host or cells: CHO-K1
The experiment in a line: cAMP HTRF assay, CHO-K1-mGPR84 cell membrane. The test is classed as biochemical. Background: TR-FRET usually uses a lanthanide donor and a delayed reading to cut background.

Test [1] concerns lung fibrosis mouse models. More on the design: method as in earlier work. The note with it: two mouse models, therapeutic setting; cited from earlier work.
In test [2] the test system is experimental kidney as well as liver fibrosis. The arrangement: method as in PMID 29454750, PMID 30093459. The note with it: cited from earlier work.
The next test relates to patients with NASH. More on the design: method as in PMID 28833331, PMID 31943293. The note with it: early data from a clinical trial in patients with NASH; cited from earlier work.
The test system of the next test is human neutrophils. Briefly: Human neutrophil chemotaxis towards GPR84 agonists. It is filed as cell-based. The conditions noted are these: embelin 5 µM.
For test [3], the system named is neutrophils from mouse bone marrow. The experiment in a line: Transwell chemotaxis of murine bone-marrow neutrophils. The test is classed as cell-based. The conditions noted are these: 3-µM embelin, 2 h. The method, then: (§1) Bone marrow of the untreated WT mice at 8 weeks of age was used to isolate the immune cells for transwell migration assays. A single cell suspension was achieved by flushing cold RPMI-1640 through the bones, and grinding the received bone marrow through a 70-µm cell strainer. After lysis of red blood cells by Pharmlyse (BD Biosciences, San Jose, CA, USA), 1 × 10^6 cells in RPMI-1640 were placed in the upper compartment of the 5-µm transwell migration chamber. Migration was analyzed towards stimulation with a 3-µM embelin, a surrogate GPR84 agonist, or a 100-µM myristic acid (an MCFA) dissolved in combination with bovine serum albumin (BSA) in the lower compartment. The chemotactic cytokines, 5 nM CCL2 or 1 nM CXCL1, were used as positive controls for monocyte or neutrophil migration, respectively. After 2 h of incubation at 37 °C, the cells in the lower compartment were analyzed by flow cytometry.

Test [4] relates to CD115+ monocytes from mouse bone marrow. Briefly: Transwell chemotaxis of murine bone-marrow monocytes. The test is classed as cell-based. The conditions noted are these: 3-µM embelin, 2 h. The method, then: as §1
Test [5] concerns C57BL6/J wildtype mice, MCD diet. Briefly: MCD diet-induced steatohepatitis and fibrosis in mice. The test is classed as in vivo, mouse. The note with it: MCD diet 8 weeks, treatment last 4 weeks; GPR84 antagonists 30 mg/kg PO q.d., selonsertib 15 mg/kg PO b.i.d.
Test [6] relates to C57BL6/J wildtype mice, chronic CCl4. The experiment in a line: CCl4-induced chronic liver injury / fibrosis in mice. It is filed as in vivo, mouse. The note with it: CCl4 IP twice per week 8 weeks, treatment last 4 weeks; CpdA 30 mg/kg q.d., selonsertib 15 mg/kg b.i.d.
Test [7] deals with C57BL6/J wildtype mice, acute CCl4 liver injury. Briefly: CCl4-induced acute liver injury in mice. It is filed as in vivo, mouse. The note with it: 36 h after single IP CCl4.
The mark [8] stands for this setting: GPR84 antagonists 30 mg/kg PO, selonsertib 15 mg/kg PO.

T1 sequence (Q8CIM5 whole entry): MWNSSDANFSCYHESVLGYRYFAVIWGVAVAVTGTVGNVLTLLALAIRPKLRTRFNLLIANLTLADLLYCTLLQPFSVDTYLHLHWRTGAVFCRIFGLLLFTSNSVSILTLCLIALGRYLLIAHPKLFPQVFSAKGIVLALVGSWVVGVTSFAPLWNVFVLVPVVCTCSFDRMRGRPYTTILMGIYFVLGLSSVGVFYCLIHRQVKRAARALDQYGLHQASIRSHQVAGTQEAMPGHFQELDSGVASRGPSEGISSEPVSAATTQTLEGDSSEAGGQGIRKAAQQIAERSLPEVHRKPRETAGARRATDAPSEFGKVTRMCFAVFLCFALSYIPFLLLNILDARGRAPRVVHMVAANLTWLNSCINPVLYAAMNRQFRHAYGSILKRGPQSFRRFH

Consider `CCCCCCCCCC(=O)O` [Capric acid], for which the “EC80 of agonist in cAMP HTRF assay” value on mGPR84 was “cAMP HTRF assay (IC50 nM) CHO-K1-mGPR84 cell membrane, Capric acid (EC80 = 61.7 µM)”.
As for `O=c1nc(OC[C@@H]2COCCO2)cc2n1CCc1cc(C#CC3CC3)ccc1-2` [GLPG1205], the lung fibrosis result in test [1] is recorded as “reduced lung fibrosis”.
Take `CCCCCc1cccc(CC(=O)O)c1` [PBI-4050, 3-pentylbenzeneacetic acid sodium salt]: in test [2], the “experimental kidney and liver fibrosis” value is recorded as “reduced experimental kidney as well as liver fibrosis”.
Regarding `CCCCOCCOc1ccc(-c2ccc3c(c2)/C=C(/C(=O)Nc2ccc([S@@+]([O-])Cc4cncn4CCC)cc2)CCCN3CC(C)C)cc1` [cenicriviroc], the antifibrotic activity entry in the test with patients with NASH is “effective antifibrotic activity”.
Take `CCCCCCCCCCCC1=C(O)C(=O)C=C(O)C1=O` [embelin]: the “induction of human neutrophil migration by agonist” value with human neutrophils was “strongly induced”. In [3], the “attraction of mouse neutrophils by agonist” value is given as “attracted”. Further, in test [4], the “stimulation of mouse monocyte migration by agonist” value is “stimulated”.
Turning to `Cc1cc(F)c(C(=O)Nc2cccc(-c3nncn3C(C)C)n2)cc1-n1cnc(C2CC2)c1` [selonsertib], the “liver fibrosis (Sirius-Red-stained liver sections and hepatic hydroxyproline content)” value in test [5] is “reduced”. Moreover, in test [6], the “liver fibrosis (Sirius-Red-staining and hepatic hydroxyproline content)” value was “markedly reduced”; the “neutrophils and liver lymphocytes” value is given as “largely unaltered”; the “numbers of hepatic macrophages, particularly MoMF” value is given as “lower numbers”; the “toxic injury according to histology or ALT levels” value is listed as “unaffected”. For the same compound, in test [7] (GPR84 antagonists 30 mg/kg PO at 0 h, 24 h, selonsertib 15 mg/kg PO at 0, 12, 24 h), the “extent of acute liver injury (necrotic areas on histology, serum ALT)” value is given as “neither significantly modified”. In test [7] (setting [8]), the “MoMF infiltration (flow cytometry)” value is given as “but not selonsertib, significantly reduced”; the “hepatic macrophage accumulation (F4/80 immunohistochemistry)” value was “neither significantly modified”; the “hepatic neutrophil infiltration (flow cytometry)” value is given as “but not selonsertib, significantly reduced”.
